Source: PubChem BioAssay (NCI)
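Grown in 96-well plates, cells were treated for 48 hours with each compound at five concentrations. Insufficient inhibition: endpoint recorded as highest concentration tested. Abbreviation: GI50, concentration required for 50% inhibition of growth. TGI: total growth inhibition.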

Assays:
Experiment in all cases: inhibition of tumour cell growth, NCI panel, 48 h
ACHN renal = test system: ACHN renal
COLO 205 colon = test system: COLO 205 colon
EKVX NSCLC = test system: EKVX NSCLC
MCF7 breast = test system: MCF7 breast
NCI-H460 lung = test system: NCI-H460 lung
OVCAR-3 ovarian = test system: OVCAR-3 ovarian
SK-MEL-28 melanoma = test system: SK-MEL-28 melanoma
MALME-3M melanoma = test system: MALME-3M melanoma
U251 CNS = test system: U251 CNS
HCC-2998 colon = test system: HCC-2998 colon

SMILES | TGI (ACHN renal) | TGI (COLO 205 colon) | TGI (EKVX NSCLC) | TGI (MCF7 breast) | TGI (NCI-H460 lung) | TGI (OVCAR-3 ovarian) | TGI (SK-MEL-28 melanoma) | TGI (MALME-3M melanoma) | TGI (U251 CNS) | GI50 (ACHN renal) | GI50 (COLO 205 colon) | GI50 (EKVX NSCLC) | GI50 (HCC-2998 colon) | TGI (HCC-2998 colon) | GI50 (MALME-3M melanoma) | GI50 (MCF7 breast) | GI50 (NCI-H460 lung) | GI50 (OVCAR-3 ovarian) | GI50 (SK-MEL-28 melanoma) | GI50 (U251 CNS)
COC(=O)C(Nc1ccc(OC)cc1)c1ccccc1 (centres undefined) | > 100 µM | > 100 µM | > 100 µM | > 100 µM | > 100 µM | > 100 µM | > 100 µM |  |  |  |  |  |  |  |  |  |  |  |  | 
Cn1c(=O)c2[nH]c(CS(=O)(=O)Cc3nc4c([nH]3)c(=O)n(C)c(=O)n4C)nc2n(C)c1=O | > 100 µM | > 100 µM | > 100 µM | > 100 µM | > 100 µM | > 100 µM | > 100 µM | > 100 µM | > 100 µM |  |  |  |  |  |  |  |  |  |  | 
CC1(C)N=C(N)N=C(N)N1c1cc(Cl)ccc1Cl | > 100 µM | > 100 µM | > 100 µM | > 100 µM | > 100 µM | > 100 µM | > 100 µM | > 100 µM | > 100 µM | > 100 µM | > 100 µM | > 100 µM | > 100 µM | > 100 µM | 59.1 µM | > 100 µM | 60.6 µM | 53.1 µM | > 100 µM | > 100 µM
S=C(Nc1ccc(Cl)cc1)Nc1ccc(-c2nc3ccccc3[nH]2)cc1 | 31.2 µM | > 35.8 µM | 52.5 µM | > 41.5 µM | > 43.4 µM |  | 35.5 µM | 32.1 µM | 18.1 µM | 7.08 µM | 2.65 µM | 13.3 µM | 1.39 µM | 2.69 µM | 7.19 µM |  | 9.28 µM | 1.33 µM |  | 5.06 µM
O=c1cc(-c2ccccc2)nc2n1CCN2Cc1ccccc1 | 76.7 µM | 68.1 µM | 96.1 µM | > 100 µM | > 100 µM | 99.6 µM | > 100 µM |  | > 100 µM | 25 µM | 26.1 µM | 30.5 µM |  |  |  | 41.9 µM | 36 µM | 27.3 µM | 60 µM | 30.5 µM
CC(=O)N1c2ccccc2Sc2cc(C(O)(C(F)(F)F)C(F)(F)F)ccc21 | > 10 µM | > 10 µM | > 10 µM | > 10 µM | > 10 µM | > 10 µM | > 10 µM | > 10 µM | > 10 µM |  |  |  |  | > 10 µM |  |  |  |  |  | 
O=C(NOCC1CC1)c1ccc(F)c(F)c1Nc1ccc(I)cc1Cl | > 39 µM | 3.54 µM |  | 19.1 µM | > 100 µM | 7.54 µM | 0.812 µM | 0.0674 µM | 12.2 µM | 1.13 µM | 0.0704 µM |  | 0.178 µM | 2.69 µM | 0.0228 µM | 3.11 µM | 2.42 µM | 2.62 µM | 0.0526 µM | 1.55 µM
O=C1CCC2(C=C(Br)C(=O)C(Br)=C2)O1 | 3.19 µM | 2.98 µM | 12.6 µM | 15.7 µM | 38.6 µM | 3.02 µM | 3.87 µM | 4.67 µM | 28.9 µM | 1.78 µM | 1.52 µM | 5.29 µM | 18.7 µM | 33.5 µM | 2.07 µM | 3.57 µM | 19.6 µM | 1.65 µM | 1.69 µM | 14.7 µM
COc1ccc2[nH]c(Cl)c(/C=C3/C(=O)N(C)c4ccccc43)c2c1 | > 100 µM | > 100 µM | > 100 µM | > 100 µM | > 100 µM | > 100 µM | > 100 µM | > 100 µM | > 100 µM | > 100 µM | 21.7 µM | > 100 µM |  |  | > 100 µM | > 100 µM | > 100 µM | 55.1 µM | > 100 µM | > 100 µM
O=[N+]([O-])/C=C/c1c[nH]c2ccccc12 | 32.3 µM | 30.6 µM | 45.1 µM | 38.4 µM | 46.3 µM | 33 µM | 32.5 µM | 35.7 µM | 26.7 µM | 17.1 µM | 15.6 µM | 19.3 µM | 4.35 µM | 12.5 µM | 19 µM | 6.02 µM | 17 µM | 15.4 µM | 17.4 µM | 12.8 µM
COc1nc(C)cc2c(=O)n(-c3ccccc3)n(CCCN3CCN(c4ccc(Cl)cc4)CC3)c(=O)c12 | > 50 µM | > 50 µM | > 50 µM | > 50 µM | > 50 µM | > 50 µM | > 50 µM | > 50 µM | > 50 µM | > 50 µM | > 50 µM | > 50 µM | > 50 µM | > 50 µM | > 50 µM | 37.7 µM | 24.6 µM | 24.6 µM | > 50 µM | 32.1 µM
O=C(C(Br)Br)C(Br)C(Br)c1ccccc1 (centres undefined) | 3.18 µM | 3.59 µM | 43.9 µM | 13.4 µM | 66.4 µM | 6.44 µM | 22.1 µM | 8.65 µM | 10.8 µM | 1.68 µM | 1.65 µM | 14.5 µM | 16.2 µM | 33 µM | 3.11 µM | 3.58 µM | 24.5 µM | 2.72 µM | 6.7 µM | 2.96 µM
CC[N+](CC)(CC)CCCn1c2c(c3ccccc3c1=O)C(=O)c1ccccc1-2 | 26.8 µM | > 100 µM |  | 7.4 µM | 4.49 µM | 50.2 µM | > 100 µM |  | > 100 µM | 3.07 µM | 23.1 µM |  | 5.62 µM | 20.9 µM |  | 2.89 µM | 1.85 µM | 9.05 µM | 29.2 µM | 4.77 µM
CC(=O)Nc1ccc(C2[C@H]3C(=O)N(c4ccc(Cc5ccc(N6C(=O)[C@@H]7ON(c8ccccc8)C(c8ccc(NC(C)=O)cc8)[C@@H]7C6=O)cc5)cc4)C(=O)[C@H]3ON2c2ccccc2)cc1 (some centres undefined) | > 100 µM | > 100 µM | > 100 µM |  | > 100 µM | > 100 µM | > 100 µM | > 100 µM | > 100 µM |  |  |  |  | > 100 µM |  |  |  |  |  | 
CCOC(=O)C1C(=O)c2ccccc2CN1Cc1ccccc1 (centres undefined) | > 100 µM | > 100 µM | > 100 µM |  | > 100 µM | > 100 µM | > 100 µM | > 100 µM | > 100 µM |  |  |  |  | > 100 µM |  |  |  |  |  | 
